# Test results from patent US5567590A, “Methods of diagnosing steroid-resistant inflammation due to type I or type II nuclear glucocorticoid receptor binding abnormalities” (National Jewish Center for Immunology and Respiratory, priority 1994, dated 1996).
# Where two headings read alike, the source gives them in different places.
# Assays:
# [1] = 7-10 day course of high dose oral Prednisone in poorly controlled asthmatics; assay type: in vivo, human; details: Post-Pn
# Protocol: 10 poorly controlled asthmatics received a 7-10 day course of high dose oral Prednisone (20-30 mg po bid). Following prednisone treatment, PBMC's were obtained as generally described in Experiment 1 and the whole cell GR number (sites/cell) and binding affinity (Kd, nmol/l) were determined using techniques generally described in Experiment 1. In addition, spirometry and serum ECP levels were measured pre- and post-Prednisone treatment. […]
# [2] = FEV1 response of SS and SR asthma patients to a 1 week course of oral prednisone; assay type: in vivo, human
# Source text: Patients with a diagnosis of asthma, based on American Thoracic Society criteria, were selected for evaluation. […]. Patients were excluded if they had evidence for other types of lung disease, pregnancy, suspected noncompliance with medical care, or concurrent therapy with medications that alter glucocorticoid metabolism, such as anti-convulsants or erythromycin. A complete set of pulmonary function tests with lung volume, methacholine bronchial challenge, and diffusion capacity/total lung capacity ratio were obtained if the diagnosis of asthma required confirmation.
# Patients were classified as SS or SR based on their prebronchodilator morning FEV1 and their response to a course of oral prednisone. […] All SR asthma patients had glucocorticoid pharmacokinetic studies to exclude those patients with an abnormality in prednisone absorption or metabolism.
# PBMC from normal donors = details: MPN 10^-6 to 10^-9 M, 72 hours
# Protocol: PBMC were then analyzed for GR-binding parameters or capacity to proliferate in the absence and presence of methylprednisone (MPN). […] After 72 hours of incubation, proliferation was measured by [^3 H]TdR incorporation (1 μCi/well, 6.7 Ci/mmol; ICN, Irvine, Calif.) during the last 6 hours of culture. Proliferation response was measured as the percent of control incorporation of [^3 ]TdR using the formula: [formula] GR-Binding Studies
# PBMC from four normal donors were preincubated in the absence and presence of IL-2+IL-4, or IL-2 alone, for 48 hours and then subsequently stimulated with PMA (0.01 μM) and I (0.05 μM) in the presence and absence of MPN ranging in concentration from 10^-6 to 10^-9 M for another 72 hours. […] Each point represents the mean±SEM.
Compound,"GR Number ([1]; PBMC, 10 poorly controlled asthmatics, Pre-Pn 8029 ± 1875, p 0.024)","ECP ([1]; serum, Pre-Pn 16.1 ± 1.9, p 0.045)","FEV1 /FVC Ratio ([1]; Pre-Pn 0.60 ± 0.02, p 0.014)","FEV1 ([1]; Pre-Pn 63.8 ± 3.2%, p 0.008)","FEV1 after steroid burst ([2]; SR asthma patients (n 17), FEV1 before BD 58 % predicted)","FEV1 after steroid burst ([2]; SS asthma patients (n 12), FEV1 before BD 47 % predicted)",effect of MPN on PMA/I-induced proliferation (PBMC from normal donors; PBMC preincubated 48 hours in culture medium alone),"effect of MPN on PMA/I-induced proliferation (PBMC from normal donors; PBMC preincubated 48 hours with IL-2+IL-4, compared with medium alone)"
C[C@]12C=CC(=O)C=C1CC[C@@H]1[C@@H]2C(=O)C[C@@]2(C)[C@H]1CC[C@]2(O)C(=O)CO [Prednisone],3575 ± 1094 sites/cell,10.8 ± 1.2 µg/L,0.70 ± 0.01,82.6 ± 4.4 % predicted,57,82,,
methylprednisone [MPN],,,,,,,significant dose-dependent inhibition of proliferation,significantly decreased inhibitory effect
